In paper PMC6941952, “A homogeneous bioluminescent immunoassay to probe cellular signaling pathway regulation” (Communications Biology, 2020):
Several values for one entry are separate records, joined by “and”; a condition that tells them apart may be missing. Equal entries are not always repeated.

Test system: total IκBα
Test: NanoBiT cell-based immunoassay, total IκBα in MCF-7 cells
Design: species or system human
Conditions: for Total IkB Average / Average / IkB Average: background subtracted; for Raw data / Subtract background / Average: Figure 2d; for Average IKB (background subtracted) / Raw data IKB / Subtract reagent background IKB: 30 min, MCF-7, Fig 7a; for IkB Average / IKB Raw data / IKB Subtract reagent background: without CHX
Outline: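 Cells were lysed in 0.1% digitonin buffer, then target protein was detected with two primary antibodies plus NanoBiT detection antibodies (90 min, 23 °C), read as luminescence minus reagent background. For pSTAT3, A431 cells were serum-starved overnight before inhibitor and stimulator. For IκBα, MCF-7 cells got inhibitor for 60 min before TNFα. IC50 came from variable-slope sigmoidal fits.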

[1] = Figure 3a and 3b, listed as TNF
[2] = No MG132, TNF 2 min, listed as TNF
[3] = No MG132, TNF 4 min, listed as TNF
[4] = No MG132, TNF 6 min, listed as TNF
[5] = No MG132, TNF 8 min, listed as TNF
[6] = No MG132, TNF 10 min, listed as TNF
[7] = No MG132, TNF 12 min, listed as TNF
[8] = No MG132, TNF 15 min, listed as TNF
[9] = No MG132, TNF 30 min, listed as TNF
[10] = TNF 0.00038147 ng/ml, listed as TNF
[11] = TNF 0.00152588 ng/ml, listed as TNF
[12] = TNF 0.00610352 ng/ml, listed as TNF
[13] = TNF 0.0244141 ng/ml, listed as TNF
[14] = TNF 0.0976562 ng/ml, listed as TNF
[15] = TNF 0.390625 ng/ml, listed as TNF
[16] = TNF 1.5625 ng/ml, listed as TNF

TNFα
Total IkB Average (Figure 3a and 3b): 42170 | Total IkB Raw data [1]: 63440 and 64850 and 64790 | Total IkB Subtract reagent background [1]: 42600 and 41250 and 42660 | Raw data (Cell # 3500, listed as TNF): 18670 and 18820 | Subtract background (Cell # 3500, listed as TNF): 4540 and 4140 | Raw data (Cell # 7000, listed as TNF): 18660 and 18670 | Subtract background (Cell # 7000, listed as TNF): 4530 and 3990 | Raw data (Cell # 14000, listed as TNF): 18430 and 19060 | Subtract background (Cell # 14000, listed as TNF): 4300 and 4380 | Raw data (Cell # 21000): 19110 | Subtract background (Cell # 21000, listed as TNF): 4980 and 4430 | Raw data (Cell # 28000, listed as TNF): 20250 and 19900 | Subtract background (Cell # 28000, listed as TNF): 6120 and 5220 | Raw data (Cell # 35000, listed as TNF): 20910 and 20760 | Subtract background (Cell # 35000, listed as TNF): 6780 and 6080 | Raw data (Cell # 42000, listed as TNF): 21720 and 21040 | Subtract background (Cell # 42000, listed as TNF): 7590 and 6360 | Raw data (Cell # 49000, listed as TNF): 22850 and 23430 | Subtract background (Cell # 49000, listed as TNF): 8720 and 8750 | Raw data (Cell # 56000, listed as TNF): 23160 and 23600 | Subtract background (Cell # 56000, listed as TNF): 9030 and 8920 | Raw data (Cell # 63000, listed as TNF): 26970 and 26330 | Subtract background (Cell # 63000, listed as TNF): 12840 and 11650 | Average (Cell # 3500): 4340 | Average (Cell # 7000): 4260 | Average (Cell # 14000): 4340 | Average (Cell # 21000): 4705 | Average (Cell # 28000): 5670 | Average (Cell # 35000): 6430 | Average (Cell # 42000): 6975 | Average (Cell # 49000): 8735 | Average (Cell # 56000): 8975 | Average (Cell # 63000): 12245 | Total IkB Average (No MG132, TNF 2 min): 63885 | Total IkB Raw data [2]: 78720 and 79300 and 81370 and 83380 | Total IkB Subtract reagent background [2]: 61913 and 62493 and 64563 and 66573 | Total IkB Average (No MG132, TNF 4 min): 62935 | Total IkB Raw data [3]: 77560 and 79450 and 81310 and 80650 | Total IkB Subtract reagent background [3]: 60753 and 62643 and 64503 and 63843 | Total IkB Average (No MG132, TNF 6 min): 62480 | Total IkB Raw data [4]: 79920 and 79580 and 79430 and 78220 | Total IkB Subtract reagent background [4]: 63113 and 62773 and 62623 and 61413 | Total IkB Average (No MG132, TNF 8 min): 58228 | Total IkB Raw data [5]: 76120 and 76190 and 73510 and 74320 | Total IkB Subtract reagent background [5]: 59313 and 59383 and 56703 and 57513 | Total IkB Average (No MG132, TNF 10 min): 52595 | Total IkB Raw data [6]: 72590 and 72810 and 65780 and 66430 | Total IkB Subtract reagent background [6]: 55783 and 56003 and 48973 and 49623 | Total IkB Average (No MG132, TNF 12 min): 41533 | Total IkB Raw data [7]: 62400 and 61420 and 53610 and 55930 | Total IkB Subtract reagent background [7]: 45593 and 44613 and 36803 and 39123 | Total IkB Average (No MG132, TNF 15 min): 29070 | Total IkB Raw data [8]: 51070 and 48840 and 41650 and 41950 | Total IkB Subtract reagent background [8]: 34263 and 32033 and 24843 and 25143 | Total IkB Average (No MG132, TNF 30 min): 9615 | Total IkB Raw data [9]: 28150 and 26460 and 25400 and 25680 | Total IkB Subtract reagent background [9]: 11343 and 9653 and 8593 and 8873 | Average IKB (background subtracted) (TNF 0.00038147 ng/ml): 68883 | Raw data IKB [10]: 80810 and 81860 and 75990 | Subtract reagent background IKB [10]: 70140 and 71190 and 65320 | Average IKB (background subtracted) (TNF 0.00152588 ng/ml): 65947 | Raw data IKB [11]: 78690 and 78640 and 72520 | Subtract reagent background IKB [11]: 68020 and 67970 and 61850 | Average IKB (background subtracted) (TNF 0.00610352 ng/ml): 63850 | Raw data IKB [12]: 76470 and 76630 and 70460 | Subtract reagent background IKB [12]: 65800 and 65960 and 59790 | Average IKB (background subtracted) (TNF 0.0244141 ng/ml): 59300 | Raw data IKB [13]: 73310 and 70780 and 65820 | Subtract reagent background IKB [13]: 62640 and 60110 and 55150 | Average IKB (background subtracted) (TNF 0.0976562 ng/ml): 52567 | Raw data IKB [14]: 65850 and 63760 and 60100 | Subtract reagent background IKB [14]: 55180 and 53090 and 49430 | Average IKB (background subtracted) (TNF 0.390625 ng/ml): 37353 | Raw data IKB [15]: 46770 and 47240 and 50060 | Subtract reagent background IKB [15]: 36100 and 36570 and 39390 | Average IKB (background subtracted) (TNF 1.5625 ng/ml): 21387 | Raw data IKB [16]: 30440 and 30700 and 35030 | Subtract reagent background IKB [16]: 19770 and 20030 and 24360 | Average IKB (background subtracted) (TNF 6.25 ng/ml): 12817 | Raw data IKB (TNF 6.25 ng/ml, listed as TNF): 23480 and 22250 and 24730 | Subtract reagent background IKB (TNF 6.25 ng/ml, listed as TNF): 12810 and 11580 and 14060 | Average IKB (background subtracted) (TNF 25 ng/ml): 10187 | Raw data IKB (TNF 25 ng/ml, listed as TNF): 20190 and 20330 and 22050 | Subtract reagent background IKB (TNF 25 ng/ml, listed as TNF): 9520 and 9660 and 11380 | Average IKB (background subtracted) (TNF 100 ng/ml): 9587 | Raw data IKB (TNF 100 ng/ml, listed as TNF): 19860 and 20090 and 20820 | Subtract reagent background IKB (TNF 100 ng/ml, listed as TNF): 9190 and 9420 and 10150 | IkB Average (TNF 5 min): 50908 | IKB Raw data (TNF 5 min, listed as TNF): 65320 and 61760 and 61990 and 62780 | IKB Subtract reagent background (TNF 5 min, listed as TNF): 53265 and 49705 and 49935 and 50725 | IkB Average (TNF 10 min): 31425 | IKB Raw data (TNF 10 min, listed as TNF): 42500 and 40590 and 43600 and 47230 | IKB Subtract reagent background (TNF 10 min, listed as TNF): 30445 and 28535 and 31545 and 35175 | IkB Average (TNF 20 min): 10930 | IKB Raw data (TNF 20 min, listed as TNF): 21120 and 20330 and 22530 and 27960 | IKB Subtract reagent background (TNF 20 min, listed as TNF): 9065 and 8275 and 10475 and 15905 | IkB Average (TNF 30 min): 8948 | IKB Raw data (TNF 30 min, listed as TNF): 19500 and 19660 and 20770 and 24080 | IKB Subtract reagent background (TNF 30 min, listed as TNF): 7445 and 7605 and 8715 and 12025 | IkB Average (TNF 40 min): 12565 | IKB Raw data (TNF 40 min, listed as TNF): 24080 and 23090 and 23770 and 27540 | IKB Subtract reagent background (TNF 40 min, listed as TNF): 12025 and 11035 and 11715 and 15485 | IkB Average (TNF 60 min): 23095 | IKB Raw data (TNF 60 min, listed as TNF): 35230 and 33190 and 36060 and 36120 | IKB Subtract reagent background (TNF 60 min, listed as TNF): 23175 and 21135 and 24005 and 24065 | IkB Average (TNF 80 min): 35000 | IKB Raw data (TNF 80 min, listed as TNF): 46920 and 46230 and 46940 and 48130 | IKB Subtract reagent background (TNF 80 min, listed as TNF): 34865 and 34175 and 34885 and 36075 | IkB Average (TNF 100 min): 40533 | IKB Raw data (TNF 100 min, listed as TNF): 53930 and 50010 and 52000 and 54410 | IKB Subtract reagent background (TNF 100 min, listed as TNF): 41875 and 37955 and 39945 and 42355 | IkB Average (TNF 120 min): 41718 | IKB Raw data (TNF 120 min, listed as TNF): 56260 and 53820 and 52280 and 52730 | IKB Subtract reagent background (TNF 120 min, listed as TNF): 44205 and 41765 and 40225 and 40675
